Data as given in paper PMC5147891 (PLoS ONE, 2016).
Read-outs that look alike come from different tables or passages of the source. Marks after values point to notes of the source that are not given here.

Key:
[1] = chronic administration, cited from earlier work
hCB1 receptors [2] = molecular target: T1, hCB1 receptors (Homo sapiens, UniProt P21554); assay: Forskolin-stimulated intracellular [3H]cAMP in intact CHO-hCB1 cells; type: cell-based; conditions: concentration-effect curves
Protocol: CHO-hCB1, CHO-hCB2, or CHO-hMOR cells were plated separately in normal culture media into 24-well plates at a density of 6 × 10^6 cells/plate and incubated overnight at 37°C in 5% CO2. As previously described, the following day culture media was removed from each well and replaced with 500 μl pre-incubation mixture containing either HAM’s F-12 K (CHO-hCB1) or DMEM (CHO-hCB2 and CHO-hMOR) with 0.9% NaCl, 500 μM 3-isobutyl-1-methylxathine (IBMX) and 2 μCi/well [^3H]adenine. Cells were incubated for 3–5 hr at 37°C. The pre-incubation mix was removed and indicated concentrations of drugs were added to the individual wells for 15 min at 37°C in a Krebs-Ringer-HEPES solution (10 mM HEPES, 110mM NaCl, 25mM Glucose, 55mM Sucrose, 5mM KCl, 1mM MgCl2, 1.8 mM CaCl2, pH 7.4) containing IBMX, and 10 μM forskolin. […] Radioactivity contained in 4 ml of the final column eluate was counted by a Packard-Tri-carb 2100/TR liquid scintillation counter after adding 10 ml of liquid scintillation cocktail.
(§1) Data presented are expressed as mean ± standard error of the mean (S.E.M.) for a minimum of three experiments, each performed in triplicate. […] To compare three or more groups, statistical significance of the data was determined by a one-way ANOVA, followed by post hoc comparisons using a Tukey's or Dunnett's test. […]

hCB1 receptors [3] = molecular target: T1, hCB1 receptors; assay: Antagonism of CP-55,940 inhibition of AC activity in intact CHO-hCB1 cells; type: cell-based; conditions: CHO-hCB1 cells
Protocol: (§2) After overnight seeding into 24-well plates and pre-incubation of cells with [^3H]adenine for 3–5 hr at 37°C as described above, media was removed and the indicated concentration of the SERM to be tested was added to all wells of the 24-well plate. […] Reactions were terminated and [^3H]cAMP isolated as described above.
(§3) Data presented are expressed as mean ± standard error of the mean (S.E.M.) for a minimum of three experiments, each performed in triplicate. GraphPad Prism version 6.0f (GraphPad Software Inc.) was used for all curve-fitting and statistical analyses. Non-linear regression for one-site competition was used to determine the IC50 for competition receptor binding. IC50 values were subsequently converted to Ki values (a measure of receptor affinity) by the Cheng-Prusoff equation [31]. Non-linear regression was also used to analyze concentration-effect curves to determine the EC50 or IC50 (measures of potency) and Emax or Imax (measures of efficacy) for GTPγS binding and adenylyl cyclase experiments, respectively. All dissociation constants and measurements of potency were converted to pKi, pKB, pEC50, or pIC50 values by taking the negative log of each value so that parametric tests could be used for statistical comparisons. To compare three or more groups, statistical significance of the data was determined by a one-way ANOVA, followed by post hoc comparisons using a Tukey's or Dunnett's test. To compare two groups, the non-paired Student's t-test was used.

hCB1 receptors [4] = molecular target: T1, hCB1 receptors; assay: [35S]GTPγS binding (G-protein activity), CHO-hCB1 membranes; type: biochemical; conditions: 10 μM
Protocol: (§4) CHO-hCB1, CHO-hCB2 and CHO-hMOR cells were homogenized individually with 10 complete strokes utilizing a 7ml Dounce glass homogenizer in an ice-cold buffer containing 50 mM HEPES pH 7.4, 3 mM MgCl2, and 1 mM EDTA as described previously. The homogenized samples were then centrifuged at 40,000 × g for 10 min at 4°C. Supernatants were discarded; the pellets re-suspended in the buffer, homogenized again, and centrifuged similarly twice more. After the final centrifugation step, supernatants were discarded and pellets were re-suspended in ice-cold 50 mM HEPES, pH 7.4 to achieve an approximate protein concentration of 10 mg/ml. Membrane homogenates were divided into aliquots and stored at −80°C for future use. A small aliquot of each membrane preparation was removed prior to freezing and the protein concentration was determined using BCA Protein Assay (Thermo Fisher Scientific, Waltham, MA).
(§5) The GTPγS binding assay to measure G-protein activation was performed as previously described. Briefly, in a total volume of 1 ml, 25 μg of CHO-hCB2, 50 μg of CHO-hCB1-Rx or 50 μg of CHO-hMOR membranes homogenates were added to each reaction mixture containing 0.1 nM [^35S]GTPγS, 20 mM HEPES, 10 mM MgCl2, 100 mM NaCl, 10 μM GDP, 0.1% bovine serum albumin and the indicated concentrations of ligand to be examined. After mixing, reaction mixtures were incubated at 30°C for 30 min. […] Nonspecific binding was defined by the amount of radioactivity remaining in the presence of 10 μM non-radiolabeled GTPγS. Reactions were terminated by rapid vacuum filtration through glass fiber filters followed by four washes with ice cold 50 mM HEPES (pH 7.4) containing 0.1% bovine serum albumin. Four ml of scintiverse scintillation fluid (Fisher Scientific, Waltham, MA) was added to the filters and the amount of radioactivity was quantified 24 hr later utilizing liquid scintillation spectrophotometry.
as §3, with “All dissociation constants and measurements of potency were converted to pKi, pKB, pEC50, or pIC50 values by taking the negative log of each value so that parametric tests could be used for statistical comparisons.” left out, “To compare two groups, the non-paired Student's t-test was used.” left out

hCB2 receptors [5] = molecular target: T2, hCB2 receptors (Homo sapiens, UniProt P34972); assay: Forskolin-stimulated intracellular [3H]cAMP in intact CHO-hCB2 cells; type: cell-based; conditions: for EMAX, intracellular [3H]cAMP: forskolin-stimulated cAMP; for EMAX, intracellular [3H]cAMP / EC50: values only approximate
T2 construct: expressed in transfected cells
Protocol: CHO-hCB1, CHO-hCB2, or CHO-hMOR cells were plated separately in normal culture media into 24-well plates at a density of 6 × 10^6 cells/plate and incubated overnight at 37°C in 5% CO2. As previously described, the following day culture media was removed from each well and replaced with 500 μl pre-incubation mixture containing either HAM’s F-12 K (CHO-hCB1) or DMEM (CHO-hCB2 and CHO-hMOR) with 0.9% NaCl, 500 μM 3-isobutyl-1-methylxathine (IBMX) and 2 μCi/well [^3H]adenine. Cells were incubated for 3–5 hr at 37°C. The pre-incubation mix was removed and indicated concentrations of drugs were added to the individual wells for 15 min at 37°C in a Krebs-Ringer-HEPES solution (10 mM HEPES, 110mM NaCl, 25mM Glucose, 55mM Sucrose, 5mM KCl, 1mM MgCl2, 1.8 mM CaCl2, pH 7.4) containing IBMX, and 10 μM forskolin. Reactions were terminated by adding 50 μl 2.2N HCl and [^3H]cAMP was isolated by employing alumina column chromatography. Radioactivity contained in 4 ml of the final column eluate was counted by a Packard-Tri-carb 2100/TR liquid scintillation counter after adding 10 ml of liquid scintillation cocktail.
To determine if modulation of adenylyl cyclase activity by SERMs was mediated through CB2 receptors coupling to Gi/o proteins, additional cAMP assays were conducted following overnight treatment with pertussis toxin as described elsewhere. Briefly, CHO-hCB2 cells were seeded into 24-well plates as described above in normal culture media containing 100 ng/ml of pertussis toxin and incubated overnight at 37°C. Pertussis toxin-treated media was removed and measurement of intracellular [^3H]cAMP levels following indicated SERM treatments was conducted as described above.
as §3

hCB2 receptors [6] = molecular target: T2, hCB2 receptors; assay: Antagonism of CP-55,940 inhibition of AC activity in intact CHO-hCB2 cells; type: cell-based
Protocol: as §2, §3

hCB2 receptors [7] = molecular target: T2, hCB2 receptors; assay: [35S]GTPγS binding (G-protein activity), CHO-hCB2 membranes; type: biochemical; conditions: 10 μM
Protocol: as §4
as §5, with “Reactions were terminated by rapid vacuum filtration through glass fiber filters followed by four washes with ice cold 50 mM HEPES (pH 7.4) containing 0.1% bovine serum albumin.” left out
as §1

hCB2 receptors [8] = molecular target: T2, hCB2 receptors; assay: Competition receptor binding with [3H]CP-55,940, CHO-hCB2 membranes; conditions: [3H]CP-55,940 binding, CHO-hCB2, 0.2 nM [3H]CP-55,940, CHO-hCB2 membranes
Protocol: as §4
(§6) Competition receptor binding was performed as reported earlier. […] The total volume of the incubation mixture was 1 ml. All reactions were mixed and allowed to reach equilibrium binding by incubation at room temperature for 90 min. […] Binding was terminated by rapid vacuum filtration through glass fiber filters (Brandel, Gaithersburg, MD), followed by four 5 ml washes of ice-cold 50 mM Tris-HCl (pH 7.4) buffer containing 0.1% bovine serum albumin. Four ml of scintiverse scintillation fluid (Fisher Scientific, Waltham, MA) was added to the filters and the amount of radioactivity was quantified 24 hr later utilizing liquid scintillation spectrophotometry.
as §3

hCB1 receptors [9] = molecular target: T1, hCB1 receptors; assay: Competition receptor binding with [3H]CP-55,940, CHO-hCB1 membranes
Protocol: as §4, §6, §3

[10] = increase of forskolin-stimulated cAMP

T2 sequence (P34972 whole entry): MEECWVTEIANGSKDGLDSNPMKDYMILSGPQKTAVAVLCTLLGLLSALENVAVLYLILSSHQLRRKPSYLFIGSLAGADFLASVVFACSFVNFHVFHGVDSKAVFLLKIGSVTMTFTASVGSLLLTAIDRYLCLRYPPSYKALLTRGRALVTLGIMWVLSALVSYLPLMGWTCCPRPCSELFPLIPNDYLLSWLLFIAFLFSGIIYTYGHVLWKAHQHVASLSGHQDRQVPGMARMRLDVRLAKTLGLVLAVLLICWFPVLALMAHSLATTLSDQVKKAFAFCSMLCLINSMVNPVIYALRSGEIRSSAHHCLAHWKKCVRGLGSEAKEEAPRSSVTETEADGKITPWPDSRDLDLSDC
T1 sequence (P21554 whole entry): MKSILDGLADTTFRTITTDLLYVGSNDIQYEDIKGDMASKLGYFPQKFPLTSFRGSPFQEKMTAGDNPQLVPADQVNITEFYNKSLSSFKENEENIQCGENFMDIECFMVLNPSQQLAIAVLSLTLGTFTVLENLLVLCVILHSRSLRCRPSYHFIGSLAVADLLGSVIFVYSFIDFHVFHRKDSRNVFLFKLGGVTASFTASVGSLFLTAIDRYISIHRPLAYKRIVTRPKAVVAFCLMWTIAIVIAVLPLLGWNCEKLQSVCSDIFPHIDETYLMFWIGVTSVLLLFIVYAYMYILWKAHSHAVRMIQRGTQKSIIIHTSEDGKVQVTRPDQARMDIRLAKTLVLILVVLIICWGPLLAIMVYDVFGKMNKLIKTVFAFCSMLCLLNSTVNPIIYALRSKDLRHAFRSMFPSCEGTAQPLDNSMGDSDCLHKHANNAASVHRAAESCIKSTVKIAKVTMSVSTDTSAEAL

CC/C(=C(\c1ccc(O)cc1)c1ccc(OCCN(C)C)cc1)c1ccccc1 [4OHT, 4-hydroxytamoxifen]
Concentration reached in serum ([1]; ref [40]): high nanomolar concentrations
Levels accumulated in brain and breast tissue ([1]; ref [65], [66]): micromolar range

Cc1c(C(=O)NN2CCOCC2)nn(-c2ccc(Cl)cc2Cl)c1-c1ccc(I)cc1 [AM-281]
Effect on basal cAMP levels (hCB1 receptors [2]): did not alter cAMP levels
Type of antagonism of CP-55,940 (hCB1 receptors [3]): surmountable antagonism
pKb (hCB1 receptors [3]; against CP-55,940, AM-281 1 μM, Z-4OHT 10 μM, Z-End 30 μM): 6.81 ± 0.061
Kb (hCB1 receptors [3]; against CP-55,940, AM-281 1 μM, Z-4OHT 10 μM, Z-End 30 μM, read-out: Kb (antagonist dissociation constant)): 155 nM
Shift (decrease) in potency (IC50) of CP-55,940 (hCB1 receptors [3]; AM-281 1 μM, Z-Tam 30 μM): greater than 8 fold
IMAX of CP-55,940, intracellular [3H]cAMP (hCB1 receptors [3]; CP-55,940 alone or after pre-incubation with AM-281 1 μM, Z-Tam 30 μM, Z-4OHT 10 μM, Z-End 30 μM): 35.7 ± 0.9^a %
Effect on basal [35S]GTPγS binding (hCB1 receptors [4]): decreased
IMAX, inhibition of basal [35S]GTPγS binding (hCB1 receptors [4]): 33. ± 3.2%

COc1ccc(C(=O)c2c(C)n(CCN3CCOCC3)c3cc(I)ccc23)cc1 [AM-630]
EMAX, intracellular [3H]cAMP (hCB2 receptors [5]): 214 ± 6.5%
pEC50, intracellular [3H]cAMP (hCB2 receptors [5]; increase of forskolin-stimulated cAMP, mean ± SEM): 6.40 ± 0.096
EC50 (hCB2 receptors [5]; [10]): 398 nM
Type of antagonism of CP-55,940 (hCB2 receptors [6]): parallel rightward-shift
IMAX of CP-55,940, intracellular [3H]cAMP (hCB2 receptors [6]; CP-55,940 alone or after pre-incubation with AM-630 1 μM, Z-Tam 10 μM, Z-4OHT 10 μM, Z-End 30 μM): 31.7 ± 0.3^a %
pKb (hCB2 receptors [6]; against CP-55,940, AM-630 1 μM, Z-Tam 10 μM, Z-4OHT 10 μM): 7.26 ± 0.064
Kb (hCB2 receptors [6]; against CP-55,940, AM-630 1 μM, Z-Tam 10 μM, Z-4OHT 10 μM, listed as +AM-630, read-out: Kb (antagonist dissociation constant)): 55 nM
Kb (hCB2 receptors [6]; against CP-55,940, AM-630 1 μM, Z-Tam 10 μM, Z-4OHT 10 μM, read-out: Kb (antagonist dissociation constant)): 55.4 nM
IMAX, decrease in basal G-protein activity ([35S]GTPγS binding) (hCB2 receptors [7]): 28.7%

CC/C(=C(\c1ccc(O)cc1)c1ccc(OCCN(C)C)cc1)c1ccccc1 [E-4OHT, 4-hydroxytamoxifen]
EMAX, intracellular [3H]cAMP (hCB2 receptors [5]): 352 ± 52^a^,^b %
EC50 (hCB2 receptors [5]; [10]): 9120 nM
Effect on basal [35S]GTPγS binding (hCB1 receptors [4]): did not significantly alter
Ki (hCB2 receptors [8]): 957 nM
Ki (hCB1 receptors [9]; Ki, [3H]CP-55,940 binding, CHO-hCB1, 0.2 nM [3H]CP-55,940, CHO-hCB1 membranes): 1240 nM
Selectivity (CB1/CB2) (hCB1 receptors [9]; ratio hCB1-Ki/hCB2-Ki): 1.30
